From US8703796B2, “3H-imidazo [4, 5-B] pyridine-6-carboxamides as anti-inflammatory agents” (Boehringer Ingelheim International GmbH, priority 2008, dated 2014)
Where a name gives a salt, the structure may show the parent alone.

molecular target: T1, recombinant human mPGES-1 (Homo sapiens, UniProt O14684); assay: mPGES-1 inhibition, HTRF detection of PGE2; type: biochemical
T1 construct: made in house; host or cells: Rosetta E. coli (microsomal/membrane fraction)
T1 sequence (O14684 1-152): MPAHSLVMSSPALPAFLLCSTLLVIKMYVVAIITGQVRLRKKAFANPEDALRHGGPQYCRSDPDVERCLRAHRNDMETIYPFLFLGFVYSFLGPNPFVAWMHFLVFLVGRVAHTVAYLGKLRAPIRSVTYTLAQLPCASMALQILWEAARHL
Summary of the method: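 PGE2 formed from PGH2 in one minute by E. coli-expressed microsomal enzyme (pH 7.4, 2.5 mM GSH) was measured by competitive HTRF against a synthetic PGE2 standard curve. Compounds were preincubated 25 min at room temperature.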

SMILES | inhibition at 10 µM [%] | inhibition at 1 µM [%]
CC(C)n1c(Nc2c(F)cccc2Cl)nc2cc(C(=O)NC3CCC(C)(C)CC3)cnc21 [Example 511, 2-(2-Chloro-6-fluorophenylamino)-N-(4,4-dimethylcyclohexyl)-3-isopropyl-3H-imidazo[4,5-b]pyridine-6-carboxamide] | 96 | 
O=C(N[C@H]1CC[C@H](C(F)(F)F)CC1)c1cc2nc(Nc3c(F)cccc3Cl)[nH]c2nc1OCC(F)F [Example 785, 2-(2-Chloro-6-fluoro-phenylamino)-5-(2,2-difluoro-ethoxy)-N-(trans-4-trifluoromethyl-cyclohexyl)-3H-imidazo[4,5-b]pyridine-6-carboxamide] | 100 | 
Cn1c(Nc2c(F)cccc2Cl)nc2cc(C(=O)N[C@H]3CC[C@H](C(F)(F)F)CC3)c(OCC(F)F)nc21 [Example 783, 2-(2-Chloro-6-fluoro-phenylamino)-5-(2,2-difluoro-ethoxy)-N-(trans-4-trifluoromethyl-cyclohexyl)-3-methyl-3H-imidazo[4,5-b]pyridine-6-carboxamide] | 100 | 
Cn1c(Nc2c(Cl)cc(F)cc2Cl)nc2cc(C(=O)N[C@H]3CC[C@H](C(F)(F)F)CC3)c(OCC(F)F)nc21 [Example 863, 2-(2,6-Dichloro-4-fluoro-phenylamino)-5-(2,2-difluoro-ethoxy)-N-(trans-4-trifluoromethyl-cyclohexyl)-3-methyl-3H-imidazo[4,5-b]pyridine-6-carboxamide] | 82 | 
Cn1c(Nc2c(Cl)cnc(Cl)c2Cl)nc2cc(C(=O)N[C@H]3CC[C@H](C(F)(F)F)CC3)c(OCC(F)F)nc21 [Example 779, 2-(2,3,5-Trichloro-pyridin-4-yl-amino)-5-(2,2-difluoro-ethoxy)-N-(trans-4-trifluoromethyl-cyclohexyl)-3-methyl-3H-imidazo[4,5-b]pyridine-6-carboxamide] |  | 96
CC1(C)CCCC(NC(=O)c2cnc3[nH]c(Nc4c(Cl)cccc4Cl)nc3c2)C1 (centres unmarked) [Example 469, 2-(2,6-Dichlorophenylamino)-N-(3,3-dimethylcyclohexyl)-3H-imidazo[4,5-b]pyridine-6-carboxamide] | 100 | 
O=C(NCc1ccccc1C(F)(F)F)c1cc2nc(Nc3c(Cl)cc(F)cc3Cl)[nH]c2nc1OCC(F)F [Example 824, 2-(2,6-Dichloro-4-fluoro-phenylamino)-5-(2,2-difluoro-ethoxy)-N-(2-trifluoromethyl-benzyl)-3H-imidazo[4,5-b]pyridine-6-carboxamide] | 100 | 
Cn1c(Nc2cnccc2C(F)(F)F)nc2cc(C(=O)N[C@H]3CC[C@H](C(F)(F)F)CC3)c(OCC(F)F)nc21 [Example 789, 2-(4-Trifluoromethyl-pyridin-3-ylamino)-5-(2,2-difluoro-ethoxy)-N-(trans-4-trifluoromethyl-cyclohexyl)-3-methyl-3H-imidazo[4,5-b]pyridine-6-carboxamide] | 95 | 
Cn1c(Nc2c(Cl)cccc2Cl)nc2cc(C(=O)NC3CCC(C(C)(C)C)CC3)cnc21 (centres unmarked) [Example 393, N-(4-tert-Butylcyclohexyl)-2-(2,6-dichlorophenylamino)-3-methyl-3H-imidazo[4,5-b]pyridine-6-carboxamide] | 99 | 

Next, values leading:

inhibition at 10 µM [%] | inhibition at 1 µM [%] | SMILES
96 |  | Cn1c(Nc2c(Cl)cncc2Cl)nc2cc(C(=O)Nc3ccc(Br)cc3)c(OCC(F)F)nc21 [Example 837, 2-(3,5-Dichloro-pyridin-4-ylamino)-5-(2,2-difluoro-ethoxy)-N-(4-bromo-phenyl)-3-methyl-3H-imidazo[4,5-b]pyridine-6-carboxamide]
100 |  | Cn1c(Nc2c(Cl)cc(F)cc2Cl)nc2cc(C(=O)NCc3ccccc3C(F)(F)F)c(OCC(F)F)nc21 [Example 871, 2-(2,6-Dichloro-4-fluoro-phenylamino)-5-(2,2-difluoro-ethoxy)-N-(2-trifluoromethyl-benzyl)-3-methyl-3H-imidazo[4,5-b]pyridine-6-carboxamide]
100 |  | COCCOc1nc2c(cc1C(=O)N[C@H]1CC[C@H](C(F)(F)F)CC1)nc(Nc1c(Cl)cncc1Cl)n2C [Example 868, 2-(3,5-Dichloro-pyridin-4-ylamino)-5-(2-methoxy-ethoxy)-N-(trans-4-trifluoromethyl-cyclohexyl)-3-methyl-3H-imidazo[4,5-b]pyridine-6-carboxamide]
99 |  | CCOc1nc2[nH]c(Nc3c(Cl)cncc3Cl)nc2cc1C(=O)Nc1cc(C(F)(F)F)ccn1 [Example 845, 2-(3,5-Dichloro-pyridin-4-ylamino)-5-ethoxy-N-(4-trifluoromethyl-pyridin-2-yl)-3H-imidazo[4,5-b]pyridine-6-carboxamide]
 | 100 | Cn1c(Nc2ccccc2C(F)(F)F)nc2cc(C(=O)Nc3ccc(Br)cc3)c(OCC(F)F)nc21 [Example 772, N-(4-Bromo-phenyl)-2-(2-trifluoromethyl-phenylamino)-5-(2,2-difluoroethoxy)-3-methyl-3H-imidazo[4,5-b]pyridine-6-carboxamide]
 | 100 | O=C(Nc1ccc(Br)cc1)c1cc2nc(Nc3c(F)cccc3C(F)(F)F)[nH]c2nc1OCC(F)F [Example 774, N-(4-Bromo-phenyl)-2-(2-fluoro-6-trifluoromethyl-phenylamino)-5-(2,2-difluoroethoxy)-3H-imidazo[4,5-b]pyridine-6-carboxamide]
100 |  | O=C(NCc1ncccc1C(F)(F)F)c1cc2nc(Nc3c(Cl)cncc3Cl)[nH]c2nc1OCC(F)(F)F [Example 855, 2-(3,5-Dichloro-pyridin-4-ylamino)-5-(2,2,2-trifluoro-ethoxy)-N-((3-trifluoromethyl-pyridin-2-yl)-methyl)-3H-imidazo[4,5-b]pyridine-6-carboxamide]
92 |  | CN(C)CCOc1nc2c(cc1C(=O)N[C@H]1CC[C@H](C(F)(F)F)CC1)nc(Nc1c(Cl)cc(F)cc1Cl)n2C [Example 865, 2-(2,6-Dichloro-4-fluoro-phenylamino)-5-(2-dimethylamino-ethoxy)-N-(trans-4-trifluoromethyl-cyclohexyl)-3-methyl-3H-imidazo[4,5-b]pyridine-6-carboxamide]
99 |  | COc1nc2c(cc1C(=O)Nc1cc(C(F)(F)F)ccn1)nc(Nc1c(Cl)cccc1Cl)n2C [Example 386, 2-(2,6-Dichloro-phenylamino)-5-methoxy-3-methyl-N-(4-trifluoromethyl-pyridin-2-yl)-3H-imidazo[4,5-b]pyridine-6-carboxamide formate]
100 |  | Cn1c(Nc2c(Cl)cncc2Cl)nc2cc(C(=O)Nc3ccc(Br)cc3)c(OCCF)nc21 [Example 832, 2-(3,5-Dichloro-pyridin-4-ylamino)-5-(2-fluoro-ethoxy)-N-(4-bromo-phenyl)-3-methyl-3H-imidazo[4,5-b]pyridine-6-carboxamide]
89 |  | O=C(Nc1ccc(Br)cc1)c1cc2nc(Nc3c(Cl)cncc3Cl)[nH]c2nc1OC1CCOC1 (centres unmarked) [Example 791, 2-(3,5-Dichloro-pyridin-4-ylamino)-5-(tetrahydrofuran-3-yl-oxy)-N-(4-bromo-phenyl)-3H-imidazo[4,5-b]pyridine-6-carboxamide]
